Data from patent publication US6410735B1, “1-(4-arylpiperazin-1-y1)-ω-[N-(α,ω-dicarboximido)]-alkanes useful as uro-selective α1-adrenoceptor blockers” (Ranbaxy Laboratories Limited, priority 1997, dated 2002).

Assays:
[1] = biological target: T1, α1B-adrenoceptor (spleen) (Rattus norvegicus, UniProt P15823); assay: In vitro functional assay, phenylephrine-induced contraction of isolated spleen; format: cell-based; conditions: rat spleen, phenylephrine; read-out: In Vitro Functional Assay (pKB) α1B (converted)
T1 construct: Aorta, prostate and spleen tissues were isolated from urethane anaesthetized (1.5 gm/kg) male wistar rats; from tissue; host or cells: isolated spleen of male Wistar rats
T1 sequence (P15823 1-515): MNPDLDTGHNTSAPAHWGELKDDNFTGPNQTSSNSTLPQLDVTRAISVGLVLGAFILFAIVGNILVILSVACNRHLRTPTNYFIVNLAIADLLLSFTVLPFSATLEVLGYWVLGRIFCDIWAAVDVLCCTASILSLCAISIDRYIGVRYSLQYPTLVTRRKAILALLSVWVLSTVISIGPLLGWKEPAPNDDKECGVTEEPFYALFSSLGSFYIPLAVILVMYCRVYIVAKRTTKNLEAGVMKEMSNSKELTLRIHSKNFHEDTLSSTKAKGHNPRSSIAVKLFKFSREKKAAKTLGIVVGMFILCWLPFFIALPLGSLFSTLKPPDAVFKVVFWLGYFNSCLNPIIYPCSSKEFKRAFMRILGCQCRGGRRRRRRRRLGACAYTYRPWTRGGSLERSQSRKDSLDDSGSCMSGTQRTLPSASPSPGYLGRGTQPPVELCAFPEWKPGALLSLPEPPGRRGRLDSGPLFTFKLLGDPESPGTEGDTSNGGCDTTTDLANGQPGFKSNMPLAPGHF
Description: (§1) In order to study selectivity of action of the present compounds towards different α-adrenoceptor subtypes, the ability of these compounds to antagonize α1-adrenoceptor agonist induced contractile response of aorta (α1D), prostate (α1A) and spleen (α1B) was studied. Aorta, prostate and spleen tissues were isolated from urethane anaesthetized (1.5 gm/kg) male wistar rats. Isolated tissues were mounted in organ bath containing Krebs Henseleit buffer of the following composition (mM): NaCl 118; KCl 4.7; CaCl2 2.5; MgSO4·H2O 1.2; NaHCO3 25; KH2PO4 1.2; glucose 11.5. Buffer was maintained at 37° C. and aerated with a mixture of 95% O2 and 5% CO2. A resting tension of 2 g (aorta) or 1 g (spleen and prostate) was applied to tissues. Contractile response was monitored using a force displacement transducer and recorded on chart recorders. Tissues were allowed to equilibrate for 2 hours. At the end of equilibration period, concentration response curves to norepinephrine (aorta) and phenylephrine (spleen and prostate) were obtained in the absence and presence of the tested compound (at concentrations of 0.1, 1 and 10 μM). Antagonist affinity was calculated and expressed as PKB values in Table 1.

[2] = biological target: T2, α1A-adrenoceptor (prostate) (Rattus norvegicus, UniProt P43140); assay: In vitro functional assay, phenylephrine-induced contraction of isolated prostate; format: cell-based; conditions: rat prostate, phenylephrine; read-out: In Vitro Functional Assay (pKB) α1A (converted)
T2 construct: Aorta, prostate and spleen tissues were isolated from urethane anaesthetized (1.5 gm/kg) male wistar rats; from tissue; host or cells: isolated prostate of male Wistar rats
T2 sequence (P43140 1-466): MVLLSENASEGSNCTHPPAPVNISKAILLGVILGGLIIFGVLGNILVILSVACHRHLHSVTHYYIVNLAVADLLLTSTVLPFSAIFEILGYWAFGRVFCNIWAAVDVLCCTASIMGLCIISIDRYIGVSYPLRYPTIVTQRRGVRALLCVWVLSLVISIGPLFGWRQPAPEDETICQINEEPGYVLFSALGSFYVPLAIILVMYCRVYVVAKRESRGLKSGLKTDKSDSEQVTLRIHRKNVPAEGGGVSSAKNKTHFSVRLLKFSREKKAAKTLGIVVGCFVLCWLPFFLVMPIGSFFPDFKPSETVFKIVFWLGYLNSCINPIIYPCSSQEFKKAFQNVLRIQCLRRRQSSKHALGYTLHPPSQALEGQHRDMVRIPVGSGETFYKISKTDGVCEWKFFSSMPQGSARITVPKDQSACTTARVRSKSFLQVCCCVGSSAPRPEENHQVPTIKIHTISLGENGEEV
Description: as §1

[3] = biological target: T3, 5-HT2A (Rattus norvegicus, UniProt P14842); assay: Receptor selectivity, rat aorta; format: cell-based; conditions: read-out: pKB 5-HT2A (converted)
T3 construct: from tissue; host or cells: rat aorta
Method: Selectivity of action of the present compounds was tested against a range of different receptors, e.g., β1- and α2-adrenergic, muscarinic cholinergic, serotoninergic (5-HT2A), histaminergic (H1), angiotensin II, endothelin (ETA and B,), as well as calcium and potassium channels. Rat aorta was used to study the effect of the compounds on 5-HT2A, ETA, calcium and potassium channels. Angiotensin II receptor antagonistic activity was studied in rabbit aorta. Muscarinic cholinergic receptor and ETB receptor antagonistic activity was studied in rat trachea, while guinea pig trachea was used to study H1 receptor antagonistic activity. Electrically stimulated rat vas deferens was used to investigate the effect of α2-adrenoceptors, while β1-adrenoceptor antagonistic activity was studied using electrically stimulated rat ventricular strips. Results of this selectivity study is shown in (Table 2).

[4] = system: anaesthetized dogs (blood pressure); assay: In vivo selectivity study, phenylephrine response on blood pressure in anaesthetized dogs; set-up: species or system dog; conditions: Canis lupus familiaris, iv 0.01-0.3 mg/kg, against phenylephrine, read-out: pseudo pKB Blood Pressure (converted)
Method: (§2) Male mongrel dogs (12-20 Kg) were anaesthetized with pentobarbitone sodium (35 mg/kg, iv). Trachea was intubated for artificial respiration. Femoral artery and femoral vein were cannulated for recording blood pressure and for administration of drug solutions, respectively. Blood pressure was recorded on a polygraph through a pressure transducer. A paramedian incision was made lateral to the penis and the bladder was exposed. Urine was drained through a cannula put directly into the bladder and it was guided into the urethra gently and was placed at the prostatic urethra. Balloon was inflated with 2 cc air and its placement was confirmed by digital pressure. Intraurethral pressure was recorded on the polygraph through a pressure transducer. Graded dose response relationship of phenylephrine (1-16 μg/kg, iv) was obtained on prostatic pressure and blood pressure, prior to administration of the compounds of the present invention. Compounds 2, 9, and 13 (at dosages of 0.01, 0.03, 0.1, and 0.3 mg/kg) were administered intravenously 10 min before obtaining phenylephrine dose response curves. Results were analyzed and pseudo PKB values were calculated as described in Kenny et al (1996).

[5] = system: anaesthetized dogs (intraurethral pressure); assay: In vivo selectivity study, phenylephrine response on intraurethral (prostatic) pressure in anaesthetized dogs; set-up: species or system dog; conditions: Canis lupus familiaris, iv 0.01-0.3 mg/kg, against phenylephrine, read-out: pseudo pKB Intraurethral Pressure (converted)
Method: as §2

T3 sequence (P14842 whole entry): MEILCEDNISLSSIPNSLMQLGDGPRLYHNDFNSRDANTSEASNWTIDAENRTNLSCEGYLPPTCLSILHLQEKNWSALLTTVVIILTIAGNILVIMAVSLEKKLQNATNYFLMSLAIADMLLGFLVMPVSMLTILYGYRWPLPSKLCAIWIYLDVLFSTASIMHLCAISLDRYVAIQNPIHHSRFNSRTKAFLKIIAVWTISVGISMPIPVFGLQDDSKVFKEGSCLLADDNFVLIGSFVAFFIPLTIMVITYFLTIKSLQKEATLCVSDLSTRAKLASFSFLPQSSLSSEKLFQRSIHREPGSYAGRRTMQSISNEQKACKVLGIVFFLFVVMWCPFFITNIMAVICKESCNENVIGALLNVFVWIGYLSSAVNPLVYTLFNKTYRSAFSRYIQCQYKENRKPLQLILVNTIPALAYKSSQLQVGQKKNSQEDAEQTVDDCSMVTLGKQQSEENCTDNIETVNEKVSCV

SMILES	Kb [1] [nM]	Kb [2] [nM]	Kb [3] [nM]	Kb [4] [nM]	Kb [5] [nM]
COc1ccccc1N1CCN(CCCN2C(=O)CCC2=O)CC1 [Compound 2, 1-[4-(2-Methoxyphenyl)piperazin-1-yl]3-(2,5-dioxopyrrolidin-1-yl)propane]	25.1	2	25.1	126	25.1
COc1ccccc1N1CCN(CCCCN2C(=O)CCC2=O)CC1 [Compound 9, 1-[4-(2-Methoxyphenyl)piperazin-1-yl]-4-(2,5-dioxopyrrolidin-1-yl)butane]	10	1	12.6	39.8	12.6
COc1ccccc1N1CCN(CCCN2C(=O)CCCC2=O)CC1 [Compound 13, 1-[4-(2-Methoxyphenyl)piperazin-1-yl]-3-(2,6-dioxopiperidin-1-yl)propane]	10	2.51	10	79.4	7.94
